We go through two compounds from ChEMBL document CHEMBL5528035, “Design, Synthesis, and Biological Evaluation for First GPX4 and CDK Dual Inhibitors” (J Med Chem, 2024).

Series [1] concerns MDA-MB-231. Nature of the series: cells. To be noted: Homo sapiens, MDA-MB-231, 48 h.
Description: Antiproliferative activity against human MDA-MB-231 cells assessed as inhibition of cell growth incubated for 48 hrs by CCK-8 assay
Series [2] in a line: Intrinsic clearance in human liver microsomes in presence of NADPH incubated for 5 to 45 mins by LC/MS analysis. To be noted: time 5-45 min, read-out: CLH. It counts as ADME, Microsome. (Liver microsomes are vesicles of endoplasmic reticulum, rich in cytochrome P450 enzymes.)
Series [3] concerns MDA-MB-231. Nature of the series: Antitumor activity against human MDA-MB-231 cells xenografted in BALB/c mouse assessed as tumor growth inhibition at 40 mg/kg,ip administrated for 21 consecutive days. In kind it is functional. To be noted: read-out: TGI. (Xenograft models place foreign cells or tissue in a host animal.)
Series [4] in a line: Clearance in Sprague-Dawley rat at 10 mg/kg,iv administration measured upto 24 hrs by LC-MS/MS analysis. In kind it is ADME, organism-based. To be noted: in vivo.
The subject of another series is A549. Nature of the series: cells. To be noted: Homo sapiens, A549, 48 h.
Series [5] is described as follows: Half life in human liver microsomes in presence of NADPH incubated for 5 to 45 mins by LC/MS analysis. In kind it is ADME, Microsome. To be noted: time 5-45 min.
Series [6] in a line: Tmax in Sprague-Dawley rat at 10 mg/kg,iv administration measured upto 24 hrs by LC-MS/MS analysis. In kind it is ADME, organism-based. To be noted: in vivo.
Series [7] is described as follows: MRT (0 to t) in Sprague-Dawley rat at 10 mg/kg,iv administration measured upto 24 hrs by LC-MS/MS analysis. In kind it is ADME, organism-based. To be noted: in vivo.
Series [8] is described as follows: Half life in Sprague-Dawley rat at 10 mg/kg,iv administration measured upto 24 hrs by LC-MS/MS analysis. In kind it is ADME, organism-based. To be noted: in vivo.
Series [9] in a line: Cmax in Sprague-Dawley rat at 10 mg/kg,iv administration measured upto 24 hrs by LC-MS/MS analysis. In kind it is ADME, organism-based. To be noted: in vivo.
For series [10], the system named is HCT-116. Nature of the series: cells. To be noted: Homo sapiens, HCT-116, 48 h.
Description: Antiproliferative activity against human HCT-116 cells assessed as inhibition of cell growth incubated for 48 hrs by CCK-8 assay
A short description of series [11]: AUC (0 to t) in Sprague-Dawley rat at 10 mg/kg,iv administration measured upto 24 hrs by LC-MS/MS analysis. In kind it is ADME, organism-based. To be noted: in vivo.
For another series, the system named is HepG2. Description: cells. To be noted: Homo sapiens, HepG2, 48 h.
The subject of series [12] is HCT-116. Description: Induction of cell cycle arrest in human HCT-116 cells assessed as accumulation of cells at G2 phase at 10 uM incubated for 24 hrs by RNase/PI staining based flow cytometric analysis. In kind it is functional. A general note: A flow cytometer gives signals particle by particle.
In series [13] the test system is HCT-116. Description: Induction of cell cycle arrest in human HCT-116 cells assessed as accumulation of cells at G1 phase at 10 uM incubated for 24 hrs by RNase/PI staining based flow cytometric analysis. It counts as functional.
Series [14] deals with MDA-MB-231. Nature of the series: Induction of cell cycle arrest in human MDA-MB-231 cells assessed as accumulation of cells at G1 phase at 10 uM incubated for 24 hrs by RNase/PI staining based flow cytometric analysis. In kind it is functional.
In series [15] the target is CDK2/Cyclin A2 (Homo sapiens) (UniProt P24941+P20248). Description: Inhibition of CDK2/CyclinA2 (unknown origin) at 100 nM preincubated for 15 mins followed by substrate and ATP addition incubated for 10 mins by ADP-glo luminescent assay relative to control. It counts as protein-complex assay. To be noted: time 25.0 min.
In series [16] the target is CDK6/cyclin D3 (Homo sapiens) (UniProt P30281+Q00534). Description: Inhibition of CDK6/CyclinD3 (unknown origin) at 100 nM preincubated for 15 mins followed by substrate and ATP addition incubated for 10 mins by ADP-glo luminescent assay relative to control. It counts as protein-complex assay. To be noted: time 25.0 min.
For series [17], the system named is MDA-MB-231. Nature of the series: Induction of cell cycle arrest in human MDA-MB-231 cells assessed as accumulation of cells at G2 phase at 10 uM incubated for 24 hrs by RNase/PI staining based flow cytometric analysis. In kind it is functional.

Activity calls are given as the source filed them. No cut-off for these calls is given here.

Description for A549: Antiproliferative activity against human A549 cells assessed as inhibition of cell growth incubated for 48 hrs by CCK-8 assay
Description for HepG2: Antiproliferative activity against human HepG2 cells assessed as inhibition of cell growth incubated for 48 hrs by CCK-8 assay

With `COc1ccc(N(C(=O)CCl)C(C(=O)NCCc2ccccc2)c2cccs2)cc1Cl` (configuration not stated), the 50% inhibitory concentration (IC50) (in general, the concentration that gives 50% inhibition) was 2.27 µM with MDA-MB-231 [1], 2.09 µM in the series on A549, 4.14 µM in the series with HCT-116 [10] and 3.71 µM with HepG2. Besides, the CLint scaled in [2] stood at 2680 mL/min/kg. Moreover, the inhibition in vivo at 40 mg/kg with MDA-MB-231 [3] is 60.9%. Also, the clearance (in general, the volume of plasma or blood freed of the substance per unit of time) in [4] is 20.8 mL/min/kg. Further, the values for the half-life in series [5] and in series [8] were 0.01 h and 1.7 h, respectively. For the same compound, in series [6], the time of peak concentration (Tmax) (usually the time from dosing to the highest level) is 0.8 h. In addition, the mean residence time MRT last (in general, a mean duration of stay, worked out from the concentration-time curve) at 24 h in series [7] was determined as 1.8 h. Besides, the highest level in series [9] (Cmax) was 8530 ng/mL. In addition, the AUC(0-t) (in general, the area under the concentration-time curve up to a stated or last time point) at 24 h in [11] was found to be 8020 ng·h/mL.

For `O=C1Nc2ccccc2/C1=C1/Nc2ccccc2/C1=N\O`, the IC50 worked out at 5.16 µM with MDA-MB-231 [1], 4.04 µM with A549, 4.22 µM in the series with HCT-116 [10] and 5.66 µM in the series with HepG2. The CLint scaled in series [2] is 55.2 mL/min/kg. Besides, the inhibition in vivo at 40 mg/kg in the series on MDA-MB-231 [3] worked out at 59.4%. Besides, the result in the series on HCT-116 [12], with HCT-116 [13], in the series with MDA-MB-231 [14] and with MDA-MB-231 [17] was Active. In series [4], this compound had a clearance of 12.8 mL/min/kg. Also, the inhibition (in general, the share of the control response that was lost under treatment) worked out at 40.3% in [15] and 51.1% in series [16]. Also, the half-life (commonly the time in which the quantity being followed falls by half) in series [5] is 0.483 h; in series [8] it was 3.8 h. Also, the time of peak concentration (Tmax) in series [6] was found to be 0.8 h. This compound yielded an MRT last at 24 h in series [7] of 2.7 h. Moreover, in [9], the Cmax (as a rule, the highest concentration seen after dosing) amounted to 8730 ng/mL. This compound displayed an AUC(0-t) at 24 h in series [11] of 12900 ng·h/mL.
